Target: FigA (Francisella tularensis, UniProt Q15EH0)
Settings: FigA alone; citrate, 2.25 mM ATP, 15 mM MgCl2, 50 mM HEPES pH 7.4, RT 2 h

Chain of FigA (Q15EH0 1-639): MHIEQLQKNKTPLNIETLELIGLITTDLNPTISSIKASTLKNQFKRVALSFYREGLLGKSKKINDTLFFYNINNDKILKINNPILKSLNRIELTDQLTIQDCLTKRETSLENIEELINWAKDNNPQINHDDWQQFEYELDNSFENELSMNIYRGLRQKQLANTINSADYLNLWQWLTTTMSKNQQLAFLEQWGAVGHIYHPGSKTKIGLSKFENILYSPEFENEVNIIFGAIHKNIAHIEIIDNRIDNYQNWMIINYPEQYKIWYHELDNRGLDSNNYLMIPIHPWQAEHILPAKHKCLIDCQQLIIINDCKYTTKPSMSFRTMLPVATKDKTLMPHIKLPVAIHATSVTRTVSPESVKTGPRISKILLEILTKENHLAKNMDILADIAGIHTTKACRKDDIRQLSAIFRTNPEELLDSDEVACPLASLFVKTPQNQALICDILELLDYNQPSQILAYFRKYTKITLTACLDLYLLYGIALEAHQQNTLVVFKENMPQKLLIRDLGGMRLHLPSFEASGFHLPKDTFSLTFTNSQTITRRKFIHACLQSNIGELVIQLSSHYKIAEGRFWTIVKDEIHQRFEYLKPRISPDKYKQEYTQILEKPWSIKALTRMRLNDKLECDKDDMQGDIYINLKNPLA

NCCC[C@H](N)C(=O)O [L-ornithine]
in vitro assay, LC-MS of N-citrylornithine (m/z 307.1): FigA alone assayed with citrate and L-ornithine assay were analyzed by LC-MS

From article PMC7857480 (The Journal of Biological Chemistry, 2020)
